The text below walks through data of patent publication US4892947A, “3(2H)Pyridazinone, process for its preparation and anti-allergic agent containing it” (Nissan Chemical Industries Ltd., priority 1985, dated 1990).

For data set [1], the system named is antigen-induced anaphylactic bronchoconstriction in passively sensitized guinea-pig. As to the kind of experiment: Anaphylactic bronchoconstriction in passively sensitized guinea-pig, p.o. test. Type of data set: in vivo. As to conditions: for Inhibition (%) of bronchoconstriction: 2 hours prior to EA challenge (0.2 mg/kg). The protocol: (§1) (iii) Effect on anaphylactic bronchoconstriction in passively sensitized guinea-pig
(§2) Male guinea-pigs (350-450 g) were passively sensitized with intravenous (i.v.) injection of 0.125 ml rabbit anti-EA (egg albumin) serum (Cappel Laboratories) 1 to 2 days preceding the experiment. Antigen-induced anaphylactic bronchoconstrictions were measured by modified method of Konzett and Rossler (Arch. Exp. Path. Pharmak., 195, 71, 1940). Sensitized guinea-pigs were anaesthetized with intraperitoneal injection of urethane (1.5 g/kg). The right jugular vein was cannulated for the administration of the all agents and trachea was cannulated to record total pulmonary resistance. Guinea-pigs were artificially ventilated by a small animal respirator (Shinano, Model SN-480-7) set at a stroke volume of 4.5 ml and a rate of 50 breaths per min. The change in pulmonary resistance was measured with a pressure transducer (Nihon Kohden, Model TP-602T) connected to a T-tube on the tracheal cannula. The increase in air overflow volume was expresssed as a percentage of the maximum bronchoconstriction obtained by clamping off the trachea. Following surgical preparation, the animals were pretreated with indomethacin (0.2 mg/kg, 10 min), pyrilamine (2 mg/kg, 6 min) and propanolol (0.1 mg/kg, 5 min) prior to the EA challenge (0.1 or 10 mg/kg). All test compounds were administered intraveneously or orally before the EA challenge. Inhibition (%) of bronchoconstriction was determined as follows: Inhibition (%)=(1.0%-maximum bronchoconstriction in test/% maximum bronchoconstriction in control)×100. The maximum bronchoconstriction was btained within 30 min after the EA challenge. The number of test animals was 4 in the i.v. test and 6 in the p.o. test.
(b) The p.o. test: A test compound was suspended in 5% gum arabic and orally administered 2 hours prior to the EA challenge (0.2 mg/kg). The reaction of the control was 62±6%.

For data set [2], the system named is LTD4. As to the kind of experiment: LTD4 antagonism in isolated guinea-pig trachea (method (i)). The format is cell-based. As to conditions: Cavia porcellus, 5 min; for inhibition at 1 µg/mL: 10^-6 g/ml test compound, Test method (i) (asterisk in Table 4), 5 min prior to LTD4; for inhibition at 10 µg/mL: 10^-5 g/ml test compound, 5 min prior to LTD4 (2×10^-8 g/ml). The protocol:
(§3) (i) LTC4 and LTD4 antagonisms in guinea-pig trachea
(§4) Antagonisms for LTC4 and LTD4 were determined in isolated guinea-pig trachea prepared as spiral strip. Tracheal preparations were suspended under 1 g tension in 10 ml organ baths and they were incubated for 1 hr prior to use. Contractile responses to LTC4 (2×10^-8 g/ml) and LTD4 (2×10^-8 g/ml) were obtained after the maximal response to histamine (10^-4 M). Test compounds dissolved in 100% dimethyl sulfoxide were added to the organ baths (final concentration of 10^-5 g/ml or 10^-6 g/ml) 5 min prior to LTC4 and LTD4 addition, and then contractile responses to LTC4 and LTD4 were compared with those of control which was obtained from a paired trachea in the absence of test compounds. LTC4 - and LTD4 -induced contractions were expressed as a percentage of the maximal response to histamine. The antagonism was determined as follows:
(§5) Antagonism (%)=(1.0-% contraction in test/% contraction in control)×100

The subject of data set [3] is antigen-induced anaphylactic bronchoconstriction in passively sensitized guinea-pig. As to the kind of experiment: Anaphylactic bronchoconstriction in passively sensitized guinea-pig, i.v. test. The format is in vivo. Particulars: i.v. 2 mg/kg, 1 min prior to EA challenge (10 mg/kg). The method, then: as §1
as §2, with “Antigen-induced anaphylactic bronchoconstrictions were measured by modified method of Konzett and Rossler (Arch. Exp. Path. Pharmak., 195, 71, 1940).” left out, “The change in pulmonary resistance was measured with a pressure transducer (Nihon Kohden, Model TP-602T) connected to a T-tube on the tracheal cannula.” left out, “The maximum bronchoconstriction was btained within 30 min after the EA challenge.” left out
(a) The i.v. test: A test compound (2 mg/kg) was suspended or dissolved in 3% Tween 80 and intraveneously administered 1 min prior to the EA challlenge (10 mg/kg).

Data set [4] relates to ddY strain male mice. In words: Acute toxicity test, intraperitoneal (Test method-(1)). The format is in vivo. Particulars: 7 days. The method, then: The lethal ratio was determined in ddY strain male mice (4 weeks old) at 7 days after the intraperitoneal injection of test compounds.
The test system of the next data set is LTC4. As to the kind of experiment: LTC4 antagonism in isolated guinea-pig trachea (method (i)). Type of data set: cell-based. Particulars: Cavia porcellus, 5 min; 10^-5 g/ml test compound, 5 min prior to LTC4 (2×10^-8 g/ml). The method, then: as §3, §4, §5
The subject of data set [5] is LTD4. As to the kind of experiment: LTD4 antagonism in isolated guinea-pig trachea with indomethacin (method (ii)). Type of data set: cell-based. As to conditions: Cavia porcellus, 0.5 h, 10^-6 g/ml test compound, 30 min prior to LTD4. The method, then:
(ii) LTD4 antagonism in guinea-pig trachea
Antagonism for LTD4 was determined in isolated guinea-pig trachea prepared as spiral strip. Tracheal preparations were suspended under 1 g tension in 10 ml organ baths containing […] of indomethacin and they were incubated for 1 hr prior to use. Contractile responses to LTD4 (2×10^-8 g/ml) were obtained after the maximal respone to hitamine (10^-4 M). Test compounds dissolved in 100% dimethyl sulfoxide were added to the organ baths (final concentration of 10^-6 g/ml) 30 min prior to LTD4 addition, and then contractile responses to LTD4 were compared with those of control which was obtained from a paired trachea in the absence of test compounds. LTD4 -induced contractions were expressed as a percentage of the maximal response to histamine. The antagonism was determined as follows:
as §5

Data set [6] relates to ddY strain male mice. In words: Acute toxicity test, oral (Test method-(2)). Type of data set: in vivo. Particulars: 7 days. The method, then: The lethal ratio was determined in ddY strain male mice (4 weeks old) at […] 7 days after the oral administration of test compounds.

As usually defined, the inhibition is the change of the read-out against control, counted positive when it falls. A higher inhibition goes with a strong effect. For `CCOc1cc(CNc2cn[nH]c(=O)c2Br)ccc1OC` [compound 36], the “Inhibition (%) of bronchoconstriction” value in data set [1] (p.o. 50 mg/kg) turned out to be 68%. Further, testing at 1 µg/mL in the data set with LTD4 [2] gave an inhibition of 70%.
In the case of `COc1cccc(CNc2cnn(C3CCCC3)c(=O)c2Cl)c1` [Compound No. 3, 4-Chloro-5-(3-methoxybenzylamino)-2-cyclopentyl-3(2H)pyridazinone], in data set [3], the “Inhibition (%) of bronchoconstriction” value turned out to be 31%. In addition, the inhibition at 10 µg/mL was found to be 82% in the data set on LTD4 [2] and 97% in the data set with LTC4. Moreover, the “Lethal ratio (Death number/Experimental number)” value in the data set on ddY strain male mice [4] (i.p. 200 mg/kg) is listed as 0/2; in the data set on ddY strain male mice [4] (i.p. 400 mg/kg), 0/1.
`COc1ccc(CNc2cnn(CC(=O)O)c(=O)c2Cl)cc1OC` [Compound No. 10, 4-Chloro-5-(3,4-dimethoxybenzylamino)-2-(carboxymethyl)-3(2H)pyridazinone]: the inhibition at 10 µg/mL with LTD4 [2] was 20%; in the data set with LTC4 it was 29%.
For `CCOc1cc(CNc2cnn(C)c(=O)c2Cl)ccc1OC` [Compound No. 13], in data set [3], the “Inhibition (%) of bronchoconstriction” value was found to be 19%. In addition, the results for the inhibition at 10 µg/mL in the data set with LTD4 [2] and in the data set with LTC4 were 79% and 81%, respectively. Moreover, the “Lethal ratio (Death number/Experimental number)” value in the data set on ddY strain male mice [4] (i.p. 200 mg/kg) is 0/2; with ddY strain male mice [4] (i.p. 400 mg/kg), 0/1.
Take `CCCc1c(OCC(O)COc2ccc3c(=O)cc(C(=O)O)oc3c2CCC)ccc(C(C)=O)c1O` (stereo not drawn) [FPL-55712, reference compound]: the “Inhibition (%) of bronchoconstriction” value in data set [3] stood at 27%. For the same compound, the “Inhibition of bronchoconstriction (in words)” value in data set [1] (p.o. 100 mg/kg) was “No substantial inhibition”. The inhibition at 10 µg/mL in the data set on LTD4 [2] was found to be 97%; with LTC4, 100%. In addition, the inhibition at 1 µg/mL was 76% with LTD4 [2] and 94% in the data set on LTD4 [5].
In the case of `CCCOc1cc(CNc2cn[nH]c(=O)c2Br)ccc1OC` [compound 30], the “Inhibition (%) of bronchoconstriction” value in data set [1] (p.o. 50 mg/kg) turned out to be 65%. In the data set on LTD4 [2], this compound yielded an inhibition at 10 µg/mL of 100% and an inhibition at 1 µg/mL of 78%.
In the case of `CCCOc1cc(CNc2cn[nH]c(=O)c2Cl)ccc1OC` [Compound No. 32], the “Inhibition (%) of bronchoconstriction” value in data set [1] (p.o. 50 mg/kg) is listed as 71%. In the data set with LTD4 [2], this compound showed an inhibition at 10 µg/mL of 100% and an inhibition at 1 µg/mL of 64%.
On to `CCCCOc1cc(CNc2cn[nH]c(=O)c2Br)ccc1OC` [Compound No. 38], for which, in data set [1] (p.o. 30 mg/kg), the “Inhibition (%) of bronchoconstriction” value was 53%. The “Lethal ratio (Death number/Experimental number)” value with ddY strain male mice [6] (oral 400 mg/kg) and with ddY strain male mice [6] (oral 800 mg/kg) was 0/3 in each case. For the same compound, testing at 1 µg/mL in the data set on LTD4 [2] gave an inhibition of 80%.
